# From patent publication US5686421A, “Hydantoin derivates” (Hoechst Aktiengesellschaft, priority 1990, dated 1997)
# Where two headings read alike, the source gives them in different places.
# Tested on: human GFP (gel-filtered platelets)
# Test: Inhibition of platelet aggregation, human gel-filtered platelets stimulated with ADP or thrombin
# Type: cell-based
# From the text: The compounds are particularly tested for their inhibitory action on the aggregation of blood platelets and the adhesion of fibrinogen to blood platelets. Gel-filtered blood platelets from donated human blood are used and are activated with ADP or thrombin.
# Inhibition of platelet aggregation to human GFP (gel-filtered platelets) stimulated with adenosine diphosphate (ADP) or thrombin (THR) (Marguerie, Plow and Edgington, J. Biol. Chem. 254 (1979) 5357-5363)
# [1] = human GFP stimulated with adenosine diphosphate (ADP), read-out: IC50 (μM) ADP
# [2] = human GFP stimulated with thrombin (THR), read-out: IC50 (μM) THR
IC50 [1] [µM],IC50 [2] [µM],Molecule
500,200,N=C(N)NCCC[C@H](N)C(=O)NCC(=O)N[C@@H](CC(=O)O)C(N)=O [HArgGlyAspNH2]
500,100,N=C(N)NCCC[C@@H](N)C(=O)NCC(=O)N[C@@H](CC(=O)O)C(N)=O [HDArgGlyAspNH2]
20,15,"N=C(N)NCCC[C@H]1NC(=O)N(CC(=O)N[C@@H](CC(=O)O)C(N)=O)C1=O [[5-(R)-(3-guanidino-propyl)-2,4-dioxo-imidazolidin-3-yl]acetyl-L-Asp-amide]"
4,3,"COc1ccc(C(NC(=O)[C@H](CC(=O)O)NC(=O)CN2C(=O)N[C@H](CCCN=C(N)N)C2=O)c2ccc(OC)cc2)cc1 [[5-(R)-(3-guanidino-propyl)-2,4-dioxo-imidazolin-3-yl]acetyl Asp 4,4'-dimethoxybenzhydrylamide]"
10,4,"COc1ccc(C(NC(=O)[C@H](CC(=O)O)NC(=O)CN2C(=O)N[C@@H](CCCN=C(N)N)C2=O)c2ccc(OC)cc2)cc1 [[5-(S)-(3-guanidino-propyl)-2,4-dioxo-imidazolidin-3-yl]acetyl-Asp 4,4'-dimethoxybenzhydrylamide]"
40,40,"NC(=O)[C@H](CC(=O)O)NC(=O)CN1C(=O)N[C@@H](CCCN=C(N)N)C1=O [[5-(S)-(3-guanidinopropyl)-2,4-dioxo-imidazolidin-3-yl]acetyl-Asp-amide]"
100,80,ZDArgGlyAspNH2
20,20,ZDArgGlyAspNHMbh
